Data set [1] deals with satellite cell-derived myoblasts. The method, then:
Myoblasts were grown in the high-serum medium until reaching a 60-70% confluence by visual inspection in 12-well plate culture dishes.
In a first set of wells, the myoblast cell preparations were placed in a high-serum medium until about 70% confluence was reached. […] These myoblast cell preparations were then switched to a low-serum medium (as described in Example 1) for four days to promote fusion and myotube formation.
In a second set of wells, the myoblast cell preparations were placed in a high-serum medium until about 70% confluence was reached. Then, the myoblast cell preparations were exposed to 5 μM of 5-azacytidine in the high-serum medium for 6 hours. These myoblast cell preparations were finally switched to a low-serum medium (as described in Example 1) for 4 days to promote fusion and myotube formation.
In a third set of wells, the myoblast cell preparations were placed in a high-serum medium until about 70% confluence was reached. These myoblast cell preparations were then exposed to 5 μM of 5-azacytidine in the high-serum medium for 24 hours. These myoblast cell preparations were finally switched to a low-serum medium (as described in Example 1) for 4 days to promote fusion and myotube formation.
In a fourth set of wells, the myoblast cell preparations were placed in a high-serum medium until about 70% confluence was reached.
In a fifth set of wells, the myoblast cell preparations were placed in a high-serum medium until about 70% confluence was reached. […] These same myoblast cell preparations were finally switched to a low-serum medium for 4 days to promote fusion and myotube formation.
FIG. 5, from left to right, depicts 5 columns with 5 different assays on myotube preparations differentiated from the myoblast cell preparations in the 12-well dishes. […] The second column reflects myotubes differentiated from a myoblast cell preparation from the second set of wells, which was exposed to 5 μM of 5-AZA in high serum medium for 6 hours. The third column reflects myotubes differentiated from a myoblast cell preparation from the third set of wells, which was exposed to 5 μM of 5-AZA in high serum medium for 24 hours. […] The immunostainings on the top row of FIG. 5 identifies lipid membranes (green color, WGA), nuclei (blue color, DAPI) and myotubes (red color, ACTA2). The gray-scale panels (middle row) show staining for nuclei only (DAPI). The gray-scale panels in the bottom row show staining for muscle fibers only (ACTA2).
Briefly, satellite cells were isolated from muscle biopsies obtained from TD children during surgical procedures, sorted using FACS, plated in gelatin coated dishes, and grown into proliferation medium in 12-well plates.

The next data set concerns the target Aurora C kinase (Homo sapiens, UniProt Q9UQB9). Conditions: cited from earlier work.
The next data set deals with porcine satellite cells. Conditions: 10 μM for 48 hours (Fan et al.); cited from earlier work.
For the next data set, the system named is C2C12 myoblasts. Conditions: mouse-derived C2C12 muscle cell lines; cited from earlier work.

In general, IC50 refers to the concentration needed to halve the response being measured.

Chain of Aurora C kinase (Q9UQB9 whole entry): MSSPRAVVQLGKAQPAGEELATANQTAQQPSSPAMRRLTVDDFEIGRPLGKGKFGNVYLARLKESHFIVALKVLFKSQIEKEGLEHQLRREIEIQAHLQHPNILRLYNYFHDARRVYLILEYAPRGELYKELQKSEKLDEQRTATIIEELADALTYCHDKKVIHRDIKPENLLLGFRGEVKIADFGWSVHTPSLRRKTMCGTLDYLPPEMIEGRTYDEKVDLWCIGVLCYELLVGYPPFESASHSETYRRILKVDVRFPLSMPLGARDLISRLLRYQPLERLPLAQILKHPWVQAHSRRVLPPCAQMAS

Consider `c1nc2nc(Nc3ccc(N4CCOCC4)cc3)nc(NC3CCCCC3)c2[nH]1` [Reversine, 2-(4-morpholinoanilino)-6-cyclohexylaminopurine], for which, in data set [1] (CP and TD myoblasts, FIG. 5 and FIG. 6, 5 μM), the “myoblast fusion and myotube formation” value was “shown to promote myoblast fusion and myotube formation”. Besides, in data set [1] (CP myoblasts, FIG. 5, 5 μM), the “cell death and polyploidy (nuclei)” value was “lower in number and suffer from polyploidy”. In addition, the “morphological changes to the membranes of the cells (WGA staining)” value in data set [1] (CP myoblasts, FIG. 5, 5 μM, 3 days) was “causes morphological changes to the membranes of the cells”. The “morphological changes to ACTA2-negative cells and nuclei” value in data set [1] (TD myoblasts, FIG. 6, 5 μM) was “led to significant morphological changes to ACTA2-negative cells and nuclei in general”. Also, in data set [1] (myoblasts), the “cell death over time” value is recorded as “over time also leads to cell death” and the de-differentiation of myoblasts entry is “causes myoblasts to de-differentiate”. Moreover, the IC50 on Aurora C kinase was 20 nM.

Take `Nc1ncn([C@H]2C[C@H](O)[C@@H](CO)O2)c(=O)n1` [decitabine, 5-aza-2′-deoxycytidine]: in the data set on porcine satellite cells, the cell viability result was “no change in cell viability” and the myogenic response result is recorded as “positive myogenic response”. In addition, in the data set with C2C12 myoblasts, the “muscle-specific gene expression, myogenesis and myotube formation” value was “promoted expression of muscle-specific genes, enhanced myogenesis and myotube formation”.

(Values after patent US20190112580A1, “METHODS FOR TREATING CO[…] AND RELATED CULTURED CELLS” (priority 2017, published 2019).)
